Results reported in patent US20050079228A1, “Clear, stable topical compositions of clarithromycin and processes for their preparation” (priority 2003, published 2005).

Assays:
[1] = Solubility of clarithromycin in non-aqueous media on complexation with zinc salt; assay type: physicochemical; details: molar ratio about 1:0.2 to about 1:2
Excerpt: Clarithromycin and the zinc salt are preferably combined in a molar ratio ranging from about 1:0.2 to about 1:2. This ratio permits the occurrence of effective complexation of the zinc and clarithromycin.

[2] = tested on: gram-positive bacteria; details: disclosed in U.S. Pat. No. 4,331,803; cited from earlier work

SMILES: CC[C@H]1OC(=O)[C@H](C)[C@@H](O[C@H]2C[C@@](C)(OC)[C@@H](O)[C@H](C)O2)[C@H](C)[C@@H](O[C@@H]2O[C@H](C)C[C@H](N(C)C)[C@H]2O)[C@](C)(OC)C[C@@H](C)C(=O)[C@H](C)[C@@H](O)[C@]1(C)O [clarithromycin]
- Solubility of clarithromycin in a non-aqueous media [1]: increases the solubility
- Antibacterial activity against gram-positive bacteria [2]: strong antibacterial activity
